These results are taken from article PMC6178282, “Comparative cell biological study of in vitro antitumor and antimetastatic activity on melanoma cells of GnRH-III-containing conjugates modified with short-chain fatty acids” (Beilstein Journal of Organic Chemistry, 2018).

The test has as its system A2058 melanoma cells. Kind of test: Morphometry analysis by HoloMonitor M4 holographic microscopy. It is filed as cell-based, human. The note with it: fold change during treatment normalized to control cells, average ± SD, 50 cells/group, 180 consecutive frames. The protocol: Holographic microscopic measurements were also performed to visualize the morphological changes induced by the conjugates and Dau. This novel technique provided several morphological parameters (e.g., surface area, optical thickness, eccentricity etc.) that allowed understanding of the results of impedance-based adhesion measurement. Holographic images were taken before and after the 3-hour treatment of A2058 cells with the compounds. The change in the morphological parameters shown in Table S1 in Supporting Information File 2 was calculated from a fold change during 3 h long treatment and this value was normalized to that of the control cells. The adhesion inducer effects of Dau and GnRH-III(Dau=Aoa) detected by the impedimetric assay were reflected in the morphometry analysis.
The experimental set up we used for the morphometry analysis can be also found in [6]. The HolomonitorTM M4 microscope (Phase Holographic Imaging AB, Lund, Sweden) was used for imaging and tracking the morphological changes of A2058 cells induced by the conjugates and Dau. This technique is dedicated to analyzing the morphology and movement of adherent cells by recording 3D, holographic phase contrast images and tracking them over a given time period. The principle behind this method is the detection of the phase shift of the probing laser light transmitting or reflecting through a cell sample and comparison to the reference light […]
A2058 cells were seeded (2.5 × 10^5 cells) in a petri dish (diameter: 35 mm) and allowed to adhere for 24 h. After automatic calibration of the background and microscope objective (20×), one field of each sample was focused on by the digital autofocus feature. The cells were then treated with the test compounds at the final concentrations of 10−7–10−5 mol/L, or with an equivalent volume of culture medium, and captured every 30 sec for 2 h.
For the evaluation, ca. 50 cells per time-lapse sequence were identified and selected by the minimum error histogram-based threshold algorithm of the HStudioTM M4 2.7.1 software (Phase Holographic Imaging AB, Lund, Sweden). The morphological changes were automatically analyzed over time by selecting and tracking individual cells.
For the morphometry analysis, different basic and complex morphological parameters were […]
The (i) area (surface area of the image occupied by a cell) and (ii) thickness (average spatial cell thickness) were grouped as basic metrics, while the more complex parameters relating to cell shape were: (iii) the eccentricity (how elongated a cell is comparing to a circle), (iv) the hull convexity (how different the 3D shape of a cell is compared to a perfect convex shape) and (v) the irregularity (how different the circumference of a cell is compared to the circumference of a perfect circle).
Table S1: Morphological changes of A2058 melanoma cells induced by the conjugates Compounds/ Area Thickness Eccentricity Hull convexity Irregularity concentrations [%] [%] [%] [%] [%]
[4Lys(Ac)] -GnRH-III(Dau=Aoa )
[4Lys(Bu)]-GnRH-III(Dau=Aoa)
Area (μm2) – surface area of the image that is occupied by the cell; Thickness (μm) – average thickness of the cell; Eccentricity – how elongated a cell comparing to a circle shape; Hull convexity – how different the 3D shape of a cell from the perfect convex shape; Irregularity – how different the circumference of a cell from the circumference of a perfect circle
Data represent averages and ±SD values calculated for 50 cells/group in 180 consecutive frames.
The presented data were calculated by HoloStudioTM M4 2.5 and analyzed by Origin Pro 2016. The levels of significance are shown as follows: *: p<0.05; **: p<0.01; ***: p<0.001

Where the note is “10^-5 M”, `COc1cccc2c1C(=O)c1c(O)c3c(c(O)c1C2=O)C[C@@](O)(C(C)=O)C[C@@H]3O[C@H]1C[C@H](N)[C@H](O)[C@H](C)O1` [daunorubicin] showed an Area of 99.1 ± 4.1%, an Eccentricity of 104.4 ± 1.84%, a Hull convexity of 101.2 ± 0.29% and an Irregularity of 102.6 ± 2.54%. Also, the Thickness (10^-5 M) is reported as 104.5 ± 2.12%. For the setting “10^-6 M”, the Eccentricity came out at 96.6 ± 1.83%, the Hull convexity is reported as 100.1 ± 0.23% and the Thickness turned out to be 95.4 ± 1.87%. The Area (10^-6 M, listed as Dau) is on record as 124.1%. Besides, where the note is “10^-7 M”, the Area was 94.5 ± 3.72%, the Eccentricity was 95.2 ± 2.25%, the Hull convexity stood at 103.4 ± 0.29% and the Irregularity is on record as 94.5 ± 2.41%. Under “10^-7 M”, this compound displayed a Thickness of 101.8 ± 1.95%.
